The test system of the test is LTB4 formation. Put plainly: Rat Peritoneal Polymorphonuclear (PMN) Leukocyte Assay (leukotriene inhibitor assay). To be noted: A-23187 10 μM. The format is cell-based. As to the method: For example, 2-[4-(1-hydroxyhexylphenoxymethyl)]quinoline (see Example 1) was compared to its 3-(1-hydroxyhexylphenoxymethyl) analog in the PMN (leukotriene inhibitor) assay.
Rats under ether anesthesia are injected (i.p.) with 8 ml of a suspension of sodium cascinate (6 grams in ca. 50 ml water). After 15-24 hr. the rats are sacrificed (CO2) and the cells from the peritoneal cavity are recovered by lavage with 20 ml of buffer (Eagles MEM containing 30 mM HEPES adjusted to pH 7.4 with NaOH). The cells are pelleted (350×g, 5 min.), resuspended in buffer with vigorous shaking, filtered, through lens paper, recentrifuged and finally suspended in buffer at a concentration of […]. A 500 μl aliquot of PMN suspension and test compound are preincubated for 2 minutes at 37° C., followed by the addition of 10 μM A-23187. The suspension is stirred for an additional 4 minutes then bioassayed for […] content by adding an aliquot to a second 500 μl portion of the PMN at 37° C. The LTB4 produced in the first incubation causes aggregation of the second PMN, which is measured as a change in light transmission. The size of the assay aliquot is chosen to give a submaximal transmission change (usually -70%) for the untreated control. The percentage inhibition of LTB4 formation is calculated from the ratio of transmission change in the sample to the transmission change in the compound-free control.

Consider 2 compounds from US4661499A, “2-[(substituted)-phenoxymethyl]quinolines” (Merck Frosst Canada, Inc., priority 1985, dated 1987).

For `CCCCCC(O)c1ccc(OCc2ccc3ccccc3n2)cc1` (centres unmarked) [Example 1], the “% Inhibition of LTB4 formation” value is, setting by setting: (0.0016 μg/ml) 15%; (0.008 μg/ml) 49%; (0.04 μg/ml) 89%; (0.2 μg/ml) 100%; (1 μg/ml) 100%; (5 μg/ml) 100%.

On to `CCCCCC(O)c1cccc(OCc2ccc3ccccc3n2)c1` (centres unmarked) [Example 3-Analog, reference compound], for which the “% Inhibition of LTB4 formation” value is -1% (0.008 μg/ml); 39% (0.04 μg/ml); 100% (0.2 μg/ml); 100% (1 μg/ml); 100% (5 μg/ml).
